Source: patent US20230233569A1 (Revolution Medicines, Inc., priority 2020, published 2023)
Where two headings read alike, the source gives them in different places.

Tests used:
[1] = test system: Capan-1 (K-Ras G12V); test: CellTiter-Glo cell viability assay, 5-day treatment; format: cell-based; conditions: Homo sapiens, CAPAN-1, 120 h, 5-day treatment; read-out: Capan-1 Cell Viability assay data (K-Ras G12V, IC50)
Summary of the method: (§1)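 Compounds were dispensed directly onto seeded cells and incubated for 5 days, then plates were equilibrated to room temperature for about 30 minutes before luminescence reading. Signals were expressed as percent of the mean DMSO control and fitted with a four-parameter logistic curve.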

[2] = test system: NCI-H358 (K-Ras G12C); test: as above; format: cell-based; conditions: Homo sapiens, NCI-H358, 120 h, 5-day treatment; read-out: H358 Cell Viability assay data (K-Ras G12C, IC50)
Summary of the method: as §1

[3] = target: KRAS G12D (Homo sapiens, UniProt P01116+P62937, G12D); test: Disruption of BRAF RBD interaction with Ras (FRET / MOA assay, with Cyclophilin A); format: biochemical
Summary of the method: (§2)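 First, compounds at a ten-point threefold dilution series (highest final concentration 30 μM) were incubated with nucleotide-loaded K-Ras, Cyclophilin A and BRAF RBD for 3 h at 25 °C. Next, detection antibodies were added for 1.5 h. Finally, IC50 was calculated from TR-FRET ratio decreases against DMSO controls.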

[4] = target: KRAS G12V (Homo sapiens, UniProt P01116+P62937, G12V); test: as above; format: biochemical
Summary of the method: as §2

[5] = target: KRAS G12S (Homo sapiens, UniProt P01116+P62937, G12S); test: as above; format: biochemical
Summary of the method: as §2

[6] = target: KRAS WT (Homo sapiens, UniProt P01116+P62937); test: as above; format: biochemical
Summary of the method: as §2

[7] = target: KRAS G13C (Homo sapiens, UniProt P01116+P62937, G13C); test: as above; format: biochemical
Summary of the method: as §2

[8] = target: KRAS G12C (Homo sapiens, UniProt P01116+P62937, G12C); test: as above; format: biochemical
Summary of the method: as §2

[9] = target: NRAS G12C (Homo sapiens, UniProt P01111+P62937, G12C); test: as above; format: biochemical
[10] = target: KRAS G13D (Homo sapiens, UniProt P01116+P62937, G13D); test: as above; format: biochemical
Summary of the method: as §2

[11] = target: NRAS Q61K (Homo sapiens, UniProt P01111+P62937, Q61K); test: as above; format: biochemical; conditions: NRAS Q61K; read-out: NRAS Q61K FRET data IC50
Summary of the method: (§3)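 TR-FRET in 25 mM HEPES pH 7.3, 100 mM NaCl, 5 mM MgCl2, 0.1% BSA: 25 μM Cyclophilin A, 12.5 nM His6-Ras-GMPPNP, 50 nM GST-BRAF RBD with compound (10-point 3-fold series from 30 μM), 3 h at 25° C. Anti-His Eu/anti-GST APC added, 1.5 h more; IC50 from decreased FRET ratio versus DMSO.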

[12] = target: NRAS WT (Homo sapiens, UniProt P01111+P62937); test: as above; format: biochemical; conditions: NRAS WT; read-out: NRAS WT FRET data IC50
Summary of the method: as §3

[13] = target: KRAS Q61H (Homo sapiens, UniProt P01116+P62937, Q61H); test: as above; format: biochemical; conditions: KRAS Q61H; read-out: KRAS Q61H FRET data IC50
Summary of the method: as §3

[14] = target: NRAS Q61R (Homo sapiens, UniProt P01111+P62937, Q61R); test: as above; format: biochemical; conditions: NRAS Q61R; read-out: NRAS Q61R FRET data IC50
Summary of the method: as §3

[15] = read-out: KRAS G12D FRET data, IC50
[16] = KRAS G12V, read-out: KRAS G12V FRET data IC50
[17] = read-out: KRAS G12S FRET data, IC50
[18] = KRAS WT, read-out: KRAS WT FRET data IC50
[19] = read-out: KRAS G13C FRET data, IC50
[20] = read-out: KRAS G12C FRET data, IC50
[21] = NRAS G12C, read-out: NRAS G12C FRET data IC50
[22] = KRAS G13D, read-out: KRAS G13D FRET data IC50

Chain of KRAS WT (P01116 1-169 isoform P01116-2 limits assumed): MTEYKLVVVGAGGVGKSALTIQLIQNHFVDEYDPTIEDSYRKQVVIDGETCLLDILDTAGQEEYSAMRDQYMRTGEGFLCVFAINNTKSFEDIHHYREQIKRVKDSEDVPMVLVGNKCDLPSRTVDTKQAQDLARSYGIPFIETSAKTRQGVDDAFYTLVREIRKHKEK
Chain of KRAS WT (P62937 whole entry): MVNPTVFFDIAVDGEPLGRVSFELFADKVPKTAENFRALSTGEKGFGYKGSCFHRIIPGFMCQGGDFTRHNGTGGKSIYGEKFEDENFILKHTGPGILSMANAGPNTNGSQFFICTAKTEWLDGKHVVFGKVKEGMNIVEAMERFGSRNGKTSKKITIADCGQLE
Chain of NRAS Q61R (P01111 whole entry Q61R): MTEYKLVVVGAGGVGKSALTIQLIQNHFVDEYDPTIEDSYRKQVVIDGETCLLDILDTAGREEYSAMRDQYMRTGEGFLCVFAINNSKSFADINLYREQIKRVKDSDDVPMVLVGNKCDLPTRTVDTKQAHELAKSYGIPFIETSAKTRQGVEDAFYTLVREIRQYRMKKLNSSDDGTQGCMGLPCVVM
Chain of NRAS Q61R (P62937 whole entry): as the sequence (P62937 whole entry) above
Chain of KRAS G13D (P01116 1-169 isoform P01116-2 G13D limits assumed): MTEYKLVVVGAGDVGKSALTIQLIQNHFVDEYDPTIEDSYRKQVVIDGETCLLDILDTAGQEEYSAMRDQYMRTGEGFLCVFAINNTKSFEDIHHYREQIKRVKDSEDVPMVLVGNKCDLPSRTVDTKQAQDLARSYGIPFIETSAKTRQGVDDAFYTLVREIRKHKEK
Chain of KRAS G13D (P62937 whole entry): as the sequence (P62937 whole entry) above
Chain of KRAS G12C (P01116 1-169 isoform P01116-2 G12C): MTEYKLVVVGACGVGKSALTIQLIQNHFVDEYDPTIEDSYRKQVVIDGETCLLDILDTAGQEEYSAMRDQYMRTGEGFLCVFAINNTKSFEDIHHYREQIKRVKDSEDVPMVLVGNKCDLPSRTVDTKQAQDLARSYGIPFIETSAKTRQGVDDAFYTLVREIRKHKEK
Chain of KRAS G12C (P62937 whole entry): as the sequence (P62937 whole entry) above
Chain of NRAS WT (P01111 whole entry): as the sequence (P01111 whole entry Q61R) above, with R61Q counted along it
Chain of NRAS WT (P62937 whole entry): as the sequence (P62937 whole entry) above
Chain of NRAS G12C (P01111 whole entry G12C): as the sequence (P01111 whole entry Q61R) above, with G12C, R61Q counted along it
Chain of NRAS G12C (P62937 whole entry): as the sequence (P62937 whole entry) above
Chain of KRAS G12S (P01116 1-169 isoform P01116-2 G12S limits assumed): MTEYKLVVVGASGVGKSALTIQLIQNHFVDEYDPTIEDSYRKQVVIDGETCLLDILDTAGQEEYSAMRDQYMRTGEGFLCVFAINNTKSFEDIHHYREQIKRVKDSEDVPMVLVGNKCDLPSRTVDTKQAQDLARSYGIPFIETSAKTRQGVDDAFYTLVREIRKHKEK
Chain of KRAS G12S (P62937 whole entry): as the sequence (P62937 whole entry) above
Chain of KRAS G12V (P01116 1-169 isoform P01116-2 G12V limits assumed): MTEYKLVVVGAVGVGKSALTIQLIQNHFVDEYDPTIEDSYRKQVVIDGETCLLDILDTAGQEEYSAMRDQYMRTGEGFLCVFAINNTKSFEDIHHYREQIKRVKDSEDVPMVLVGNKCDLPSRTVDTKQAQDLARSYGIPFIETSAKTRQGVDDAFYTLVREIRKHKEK
Chain of KRAS G12V (P62937 whole entry): as the sequence (P62937 whole entry) above
Chain of KRAS G12D (P01116 1-169 isoform P01116-2 G12D limits assumed): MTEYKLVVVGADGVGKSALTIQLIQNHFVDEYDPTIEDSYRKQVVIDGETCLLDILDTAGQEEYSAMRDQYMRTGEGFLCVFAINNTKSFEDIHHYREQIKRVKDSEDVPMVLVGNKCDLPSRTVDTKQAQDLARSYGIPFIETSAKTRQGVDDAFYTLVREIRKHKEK
Chain of KRAS G12D (P62937 whole entry): as the sequence (P62937 whole entry) above
Chain of KRAS Q61H (P01116 1-169 isoform P01116-2 Q61H limits assumed): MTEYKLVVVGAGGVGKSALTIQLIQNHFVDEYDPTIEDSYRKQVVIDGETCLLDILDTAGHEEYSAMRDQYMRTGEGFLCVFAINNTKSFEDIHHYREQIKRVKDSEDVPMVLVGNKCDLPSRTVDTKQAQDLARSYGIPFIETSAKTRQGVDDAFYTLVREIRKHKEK
Chain of KRAS Q61H (P62937 whole entry): as the sequence (P62937 whole entry) above
Chain of KRAS G13C (P01116 1-169 isoform P01116-2 G13C): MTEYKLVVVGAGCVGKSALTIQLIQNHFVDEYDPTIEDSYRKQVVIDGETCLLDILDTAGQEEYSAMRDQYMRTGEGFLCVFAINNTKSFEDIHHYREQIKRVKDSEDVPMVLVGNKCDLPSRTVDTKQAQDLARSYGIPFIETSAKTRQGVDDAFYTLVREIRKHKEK
Chain of KRAS G13C (P62937 whole entry): as the sequence (P62937 whole entry) above
Chain of NRAS Q61K (P01111 whole entry Q61K): as the sequence (P01111 whole entry Q61R) above, with R61K counted along it
Chain of NRAS Q61K (P62937 whole entry): as the sequence (P62937 whole entry) above

Row | Compound | IC50 [1] [nM] | IC50 [2] [nM] | IC50 [3, 15] [nM] | IC50 [4, 16] [nM] | IC50 [5, 17] [nM] | IC50 [6, 18] [nM] | IC50 [7, 19] [nM] | IC50 [8, 20] [nM] | IC50 [9, 21] [nM] | IC50 [10, 22] [nM] | IC50 [11] [nM] | IC50 [12] [nM] | IC50 [13] [nM] | IC50 [14] [nM] | also measured
1 | CCn1c(-c2cccnc2[C@H](C)OC)c2c3cc(ccc31)-c1cc(O)cc(c1)C[C@H](NC(=O)[C@H](C(C)C)N(C)C(=O)OC1CC1)C(=O)N1CCC[C@H](N1)C(=O)OCC(C)(C)C2 [Example A174] | 100 to 1000 | 100 to 1000 | 100 to 1000 | 100 to 1000 | 100 to 1000 | 100 to 1000 | 100 to 1000 | 100 to 1000 | 100 to 1000 | 100 to 1000 | 100 to 1000 | 100 to 1000 | 10 to 100 | 100 to 1000 | –
2 | CCn1c(-c2cccnc2[C@H](C)OC)c2c3cc(ccc31)-c1cc(O)cc(c1)C[C@H](NC(=O)[C@H](C(C)C)N(C)C(=O)[C@H]1CCN(C(=O)OC3COC3)C1)C(=O)N1CCC[C@H](N1)C(=O)OCC(C)(C)C2 [Example A204] | 10 to 100 | 10 to 100 | 100 to 1000 | 10 to 100 | 10 to 100 | 10 to 100 | 10 to 100 | 10 to 100 | 10 to 100 | 10 to 100 | 100 to 1000 | 10 to 100 | 10 to 100 | 100 to 1000 | –
3 | CCn1c(-c2cccnc2[C@H](C)OC)c2c3cc(ccc31)-c1csc(n1)C[C@H](NC(=O)[C@H](C(C)C)N(C)C(=O)O[C@H]1CCOC1)C(=O)N1CCC[C@H](N1)C(=O)OCC(C)(C)C2 [Example A210] | 10 to 100 | 100 to 1000 | 1000 to 10000 | 1000 to 10000 | 1000 to 10000 | 100 to 1000 | 1000 to 10000 | 100 to 1000 | 100 to 1000 | 1000 to 10000 | 100 to 1000 | 100 to 1000 | 100 to 1000 | 100 to 1000 | –
4 | CCn1c(-c2cccnc2[C@H](C)OC)c2c3cc(ccc31)-c1cc(O)cc(c1)C[C@H](NC(=O)[C@H](C(C)C)N(C)C(=O)C1CCc3ccccc3N1)C(=O)N1CCC[C@H](N1)C(=O)OCC(C)(C)C2 (stereo partly shown) [Example A226] | 100 to 1000 | 100 to 1000 | 1000 to 10000 | 100 to 1000 | 100 to 1000 | 100 to 1000 | 10 to 100 | 10 to 100 | 100 to 1000 | 100 to 1000 | 100 to 1000 | 100 to 1000 | 10 to 100 | 100 to 1000 | –
5 | CCn1c(-c2cccnc2[C@H](C)OC)c2c3cc(ccc31)-c1cc(O)cc(c1)C[C@H](NC(=O)[C@H](C(C)C)N(C)C(=O)C1Cc3cccnc3C1)C(=O)N1CCC[C@H](N1)C(=O)OCC(C)(C)C2 (stereo partly shown) [Example A250] | 10 to 100 | 10 to 100 | 100 to 1000 | 10 to 100 | 10 to 100 | 100 to 1000 | 10 to 100 | 10 to 100 | 10 to 100 | 100 to 1000 | 100 to 1000 | 10 to 100 | 10 to 100 | 100 to 1000 | –
6 | CCn1c(-c2cccnc2[C@H](C)OC)c2c3cc(ccc31)-c1csc(n1)C[C@H](NC(=O)N1CCCC1)C(=O)N1CCC[C@H](N1)C(=O)OCC(C)(C)C2 [Example A267] | 100 to 1000 | 100 to 1000 | – | – | – | – | – | – | – | – | 100 to 1000 | 100 to 1000 | 100 to 1000 | 100 to 1000 | IC50 ([3]; KRAS G12D FRET data, IC50): 100 to 1000 nM; IC50 ([4]; KRAS G12V FRET data IC50, KRAS G12V): 100 to 1000 nM; IC50 ([5]; KRAS G12S FRET data, IC50): 100 to 1000 nM; IC50 ([6]; KRAS WT FRET data IC50, KRAS WT): 100 to 1000 nM; IC50 ([7]; KRAS G13C FRET data, IC50): 100 to 1000 nM; IC50 ([8]; KRAS G12C FRET data, IC50): 100 to 1000 nM; IC50 ([9]; NRAS G12C FRET data IC50, NRAS G12C): 10 to 100 nM; IC50 ([10]; KRAS G13D FRET data IC50, KRAS G13D): 100 to 1000 nM
7 | CCn1c(-c2cccnc2[C@H](C)OC)c2c3cc(ccc31)-c1csc(n1)C[C@H](NC(=O)[C@H](C(C)C)N(C)C(=O)N1CCC13CCN(C)CC3)C(=O)N1CCC[C@H](N1)C(=O)OCC(C)(C)C2 [Example A273] | 100 to 1000 | 10 to 100 | 100 to 1000 | 100 to 1000 | 10 to 100 | 100 to 1000 | 100 to 1000 | 10 to 100 | 10 to 100 | 100 to 1000 | 100 to 1000 | 10 to 100 | 10 to 100 | 100 to 1000 | –
8 | CCn1c(-c2cccnc2[C@H](C)OC)c2c3cc(ccc31)-c1csc(n1)C[C@H](NC(=O)[C@H](C(C)C)N(C)C(=O)N1CCC13CN(C)C3)C(=O)N1CCC[C@H](N1)C(=O)OCC(C)(C)C2 [Example A274] | 100 to 1000 | 100 to 1000 | 100 to 1000 | 100 to 1000 | 100 to 1000 | 10 to 100 | 100 to 1000 | 10 to 100 | 10 to 100 | 100 to 1000 | 100 to 1000 | 10 to 100 | 10 to 100 | 100 to 1000 | –
9 | CCn1c(-c2cccnc2[C@H](C)OC)c2c3cc(ccc31)-c1csc(n1)C[C@H](NC(=O)[C@H](C(C)C)N(C)C(=O)N1CC[C@@H]1C(=O)NC)C(=O)N1CCC[C@H](N1)C(=O)OCC(C)(C)C2 [Example A281] | 100 to 1000 | 100 to 1000 | > 10000 | 1000 to 10000 | 1000 to 10000 | 1000 to 10000 | 1000 to 10000 | 1000 to 10000 | 1000 to 10000 | 1000 to 10000 | 100 to 1000 | 1000 to 10000 | 100 to 1000 | 1000 to 10000 | –
10 | CCn1c(-c2cccnc2[C@H](C)OC)c2c3cc(ccc31)-c1csc(n1)C[C@H](NC(=O)[C@H](C(C)C)N(C)C(=O)N1CC[C@H]1C(=O)NC)C(=O)N1CC(C)C[C@H](N1)C(=O)OCC(C)(C)C2 (stereo partly shown) [Example A282] | 100 to 1000 | 100 to 1000 | 1000 to 10000 | 1000 to 10000 | 1000 to 10000 | 1000 to 10000 | 1000 to 10000 | 100 to 1000 | 100 to 1000 | 1000 to 10000 | 1000 to 10000 | 1000 to 10000 | 100 to 1000 | 1000 to 10000 | –
11 | CCn1c(-c2cccnc2[C@H](C)OC)c2c3cc(ccc31)-c1csc(n1)C[C@H](NC(=O)[C@H](C(C)C)N(C)C(=O)N1C[C@H](C)N(C)C[C@@H]1C)C(=O)N1CCC[C@H](N1)C(=O)OCC(C)(C)C2 [Example A283] | 100 to 1000 | 100 to 1000 | 1000 to 10000 | 1000 to 10000 | 1000 to 10000 | 100 to 1000 | 1000 to 10000 | 100 to 1000 | 100 to 1000 | 1000 to 10000 | 100 to 1000 | 100 to 1000 | 100 to 1000 | 100 to 1000 | –
